Here are results for two molecules from paper PMC3433414, “Oral Administration of the Pimelic Diphenylamide HDAC Inhibitor HDACi 4b Is Unsuitable for Chronic Inhibition of HDAC Activity in the CNS In Vivo” (PLoS ONE, 2012).

One data set has as its target T1, HDAC3-NcoR2 (Homo sapiens, UniProt O15379).
T1 construct: purified recombinant human full length HDAC1 (cat# 50051), HDAC2 (cat# 50052), HDAC3-NcoR2 (cat# 50003); purchased BPS Bioscience (San Diego, CA) 50003
Nature of the data set: Two-step fluorogenic deacetylase assay, recombinant HDAC3. In kind it is biochemical. The procedure: As described, the length of compound-enzyme incubation has been reported to be critical for this class of HDAC inhibitors, where a unique time-dependent increase in affinity and subsequent potency has been observed [36]–[38]. […] To better mimic physiological conditions, our experiments were performed at 37°C as opposed to room temperature as reported in previous studies. […] To confirm that this shift was independent of the time of 4b in aqueous solution, 4b was applied immediately to the enzyme-substrate mix both after preparing in aqueous buffer, and 120 min after preparation.
To assess the biochemical and cellular potency of 4b and its conversion products/metabolites, we utilized the two-step fluorogenic assay which measures the HDAC-mediated catalytic conversion of synthetic acetylated lysine substrates. In brief, on deacetylation of the substrates by HDAC activity, a protease site is unmasked which allows subsequent trypsin-mediated cleavage and release of the highly flourescent AMC molecules in a subsequent step of the assay. The substrates used were Lys_Ac_AMC (Bachem I-1875) for HDAC3 and (Ac)Arg-Gly-Lys(Ac) (Bachem I-1925) for HDAC1 and HDAC2. The final substrates used for each enzyme assessment were carefully selected after assessing the catalytic turnover of each of these substrates against HDAC1, HDAC2 and HDAC3 respectively, and selecting the ones that performed best. To assess Class IIa enzyme activity (HDAC4, 5, 7, 9) and Class I HDAC8 activity, we used the alternative substrate Boc_Lys_TFA (Bachem I-1985), equivalent to substrate 4 of [42]. Class IIa HDACs have approximately 1000-fold less catalytic activity than Class 1 enzymes, and show only extremely low turnover of acetylated substrates due to a Tyr to His mutation in the active site. However, the relatively labile and sterically more demanding trifluoracetyl group is readily hydrolyzed by the catalytically less avid Class IIa enzymes, allowing measurement of Class IIa activity using the 2-step fluorogenic assay. Intriguingly the Boc_Lys_TFA substrate seems to show almost total selectivity for Class IIa enzymes over class I and Class IIb enzymes, with the exception of HDAC8 ([42], and internal data).
For evaluation of the class selectivity of the compounds, we assessed inhibition against purified recombinant human full length HDAC1 (cat# 50051), HDAC2 (cat# 50052), HDAC3-NcoR2 (cat# 50003) and HDAC8 (cat# 50008): as representative of Class I activity; catalytic domain HDAC4(αα 648–1057), HDAC5 (αα 657–1123; cat # 50005), HDAC7 (αα 518-end; cat # 50007) and HDAC9 (αα 604–1066; cat # 50009) activity: representing all Class IIa activity; and full length HDAC6 (cat#50006): representing Class IIb activity. With the exception of purified catalytic domain HDAC4, which was prepared for us by Emerald Biosciences (Seattle, WA), all HDAC enzymes were purchased from BPS Bioscience (San Diego, CA).
Unless otherwise stated in the text, assays were run in the following format in 384-well plates using automated liquid handling procedures. Briefly, frozen enzyme stock and compounds were diluted in assay buffer (50 mM Tris-HCl, 137 mM NaCl, 2.7 mM KCl, 1 mM MgCl2 at pH 8.0) and added to plates at concentrations sufficient to achieve a 16-point concentration-response curve from 50 µM to 1 nM at 1% DMSO final concentration, after addition of all reagents. Substrate diluted in assay buffer was then added and plates were incubated after brief shaking for 60 min at 37°C. Following incubation, a developer/stop-step was introduced to terminate the reaction and cleave the fluorescent substrate: either the addition of trypsin with 10 µM Compound 26 [44] for the Class IIa enzymes, or trypsin with 5 µM Trichostatin A (TSA) for the Class I/IIb enzymes. Plates were briefly shaken and then returned to the incubator for a further 60 min, followed by measurement of fluorescence per well (Ex 355 nm, Em 460 nm) on a Perkin Elmer EnVision. […]

Data set [1] can be described thus: Permeability in MDCK cells. Particulars: dog, pH 7.4. The class given is in vitro ADME. The procedure: The MDR1-MDCKII and wild type MDCKII cell lines (obtained from SOLVO Biotechnology) were cultured in accordance with the guidelines provided by SOLVO Biotechnology. Both wild-type MDCK and MDR1-MDCK cells were seeded at a cell density of 2.3×10^5 cells/well into 24-well Transwell plates and cultured for three days to form monolayers. Test compound was loaded into the donor compartments of the Transwell plate (24-well) bearing MDR1-MDCK or wild type MDCK monolayers. Test compound was added to either the apical or basolateral chambers of the Transwell plate assembly at a concentration of 10 µM in Hanks’ Balanced Salt Solution containing 25 mM HEPES (pH 7.4). Lucifer Yellow was added to the apical buffer in all wells and its permeation monitored to assess integrity of the cell layer. […] Concentrations of compound in the samples were measured by LC-MS/MS. Concentrations of LY in the samples were measured using a fluorescence plate reader. The apparent permeability (Papp) values of test compound were determined for both the apical to basal (A>B) and basal to apical (B>A) permeation and the efflux ratio (B>A: A>B) determined in both the wild type MDCK and MDR1-MDCK cells. Apparent permeability (Papp) values were calculated from the relationship: [drawing 5] […]

The target in a further data set is T2, B1 (h) (Homo sapiens, UniProt P46663).
T2 construct: purchased Cerep (Diversity Profile)
Nature of the data set: Cerep binding, agonist radioligand. The following applies: read-out: % inhibition of control specific binding. The source says:
(§1) In addition to the HDAC profiling performed, we also queried 4b for any apparent potential off-target effects, which could complicate any finding of efficacy or adverse events in vivo due to ‘polypharmacy’. This was accomplished by screening against a ‘diversity panel’ of 72 binding and 29 enzyme assays, comprised of roughly equal numbers of selective central and peripheral therapeutically relevant targets (Cerep Diversity Profile). This panel included representative targets from diverse enzyme families, G protein coupled receptors, steroid nuclear receptors, voltage- and ligand-gated ion channels. While not totally inclusive, it is a useful tool for discovery compounds to assess their viability as proof of concept molecules to specifically query a particular target. 4b was initially screened at 10 µM in duplicate. The full set of results is provided as Table S1. […] This clean in vitro profile was considered acceptable to proceed to ADME and pharmacokinetic studies.

For a further data set, the target named is T3, CRF1 (h) (Homo sapiens, UniProt P34998).
T3 construct: purchased Cerep (Diversity Profile)
Nature of the data set: Cerep binding, agonist radioligand. Particulars: read-out: % inhibition of control specific binding.
Source text: as §1

The next data set relates to P2X. Nature of the data set: Cerep binding, agonist radioligand. The following applies: 10 μM.
Source text: as §1

T1 sequence (O15379 whole entry): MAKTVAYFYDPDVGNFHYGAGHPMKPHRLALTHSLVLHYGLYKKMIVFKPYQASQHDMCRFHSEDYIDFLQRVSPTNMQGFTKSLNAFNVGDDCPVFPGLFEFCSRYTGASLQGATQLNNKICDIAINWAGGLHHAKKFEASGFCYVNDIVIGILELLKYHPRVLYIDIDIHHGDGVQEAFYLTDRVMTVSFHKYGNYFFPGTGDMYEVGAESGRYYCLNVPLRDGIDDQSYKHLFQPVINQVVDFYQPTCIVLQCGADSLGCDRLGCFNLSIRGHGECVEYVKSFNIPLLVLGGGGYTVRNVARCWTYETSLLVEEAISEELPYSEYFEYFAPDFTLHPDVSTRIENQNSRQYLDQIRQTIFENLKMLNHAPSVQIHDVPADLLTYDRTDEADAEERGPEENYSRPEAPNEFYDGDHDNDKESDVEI
T1 sequence (Q9Y618 395-489 partner limits assumed): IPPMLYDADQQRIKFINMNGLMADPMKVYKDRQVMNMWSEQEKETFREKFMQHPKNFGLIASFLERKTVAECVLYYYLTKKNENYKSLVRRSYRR
T2 sequence (P46663 whole entry): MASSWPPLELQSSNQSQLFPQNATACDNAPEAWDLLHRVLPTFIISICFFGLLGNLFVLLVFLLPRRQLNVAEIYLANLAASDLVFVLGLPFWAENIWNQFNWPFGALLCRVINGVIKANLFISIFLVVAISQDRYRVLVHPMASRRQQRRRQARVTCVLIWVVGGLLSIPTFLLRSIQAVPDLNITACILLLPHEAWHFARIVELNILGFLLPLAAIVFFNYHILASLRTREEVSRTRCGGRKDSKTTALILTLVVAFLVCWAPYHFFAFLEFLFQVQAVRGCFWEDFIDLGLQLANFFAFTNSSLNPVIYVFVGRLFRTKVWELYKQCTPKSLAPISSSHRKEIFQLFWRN
T3 sequence (P34998 24-415): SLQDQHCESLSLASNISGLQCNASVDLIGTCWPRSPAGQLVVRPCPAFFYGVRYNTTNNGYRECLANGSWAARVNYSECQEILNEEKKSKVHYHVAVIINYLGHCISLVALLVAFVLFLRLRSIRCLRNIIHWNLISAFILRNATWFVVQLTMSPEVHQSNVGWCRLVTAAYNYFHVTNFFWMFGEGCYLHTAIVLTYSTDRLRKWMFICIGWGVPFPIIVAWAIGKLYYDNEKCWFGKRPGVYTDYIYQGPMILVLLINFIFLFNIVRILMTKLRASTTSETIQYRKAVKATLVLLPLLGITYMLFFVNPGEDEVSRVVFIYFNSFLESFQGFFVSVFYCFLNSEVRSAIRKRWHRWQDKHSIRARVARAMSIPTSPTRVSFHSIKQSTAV

By IC50 is commonly meant the concentration that gives 50% inhibition. One may read the Papp A→B as how fast a substance crosses the layer from the apical side. As usually defined, the inhibition is the share of the control response that was lost under treatment. As to `Nc1ccccc1NC(=O)CCCCCC(=O)Nc1ccccc1` [Compound 4b], the “selectivity for HDAC3 over HDAC2” value at HDAC3-NcoR2 was about 9 fold. Also, the half-maximal inhibitory concentration (IC50) at HDAC3-NcoR2 (0 min pre-incubation with enzyme, then 60 min substrate, 37°C) came to 650 nM; at HDAC3-NcoR2 (2 h pre-incubation with enzyme (3 h incubation in total), 37°C), 80 nM; on HDAC3-NcoR2 (no enzyme pre-incubation, applied 120 min after preparation in aqueous buffer), 650 nM; at HDAC3-NcoR2 (no enzyme pre-incubation, applied immediately after preparing in aqueous buffer), 970 nM; at HDAC3-NcoR2 (standard screening format, free base, DMSO stock) it was 254 nM. On HDAC3-NcoR2 (standard screening format), the “selectivity within the Class I enzymes for HDAC3” value is recorded as about 6 fold. In data set [1], the Papp A→B at 1 h, 10 µM turned out to be 10.8 ×10⁻⁶ cm/s. The inhibition at 10 µM on B1 (h) amounted to 5%; at CRF1 (h), 0%.

For `O=C(CCCCCc1nc2ccccc2[nH]1)Nc1ccccc1` [Compound C1, 6-(1-H-benzo[d]imidazol-2-yl)-N-phenylhexanamide], the “% inhibition of control specific binding” value in the data set with P2X is given as 5%.
